Where a name gives a salt, the structure may show the parent alone.
Tests used:
mouse neural stem cells [1] = assay: Real-time RT-PCR of neuronal / dopaminergic markers in cultured neural stem cells; type: cell-based; conditions: 4 days; for Tuj1 (marker of neurons) expression / tyrosine hydroxylase (TH) expression: AS703026, AZD8330 10 μM, PD318088, Trametinib, Refametinib 1 μM; for Tuj1 (marker of neurons) expression: FIG. 8B; for tyrosine hydroxylase (TH) expression: FIG. 8C
Protocol: Neural stem cells were isolated from the brain of a day 14.5 mouse embryo, treated with 10 ng/ml human basic fibroblast growth factor (bFGF) (Peprotech, Princeton, N.J.) and 20 ng/ml human epidermal growth factor (EGF) (Peprotech) in a N2 culture medium, and cultured in suspension in a 25 cm^2 flask (Nunc, Pittsburgh, Pa.) for 4 days.
Neurospheres were treated with TrypLE and then separated into single cells, which were uniformly seeded into a culture dish coated with 15 μg/ml poly-L-ornithine and 10 μg/ml fibronectin. Following culture, the morphology of the cells was observed.
The N2 culture medium was Dulbecco's modified Eagle's medium (DMEM)/F12 (1:1) supplemented with 100 μM putrescine, 30 nM selenite, 20 nM progesterone, 1.55 mg/ml d-(+)-glucose, 25 μg/ml insulin, […] apo-transferrin, 0.5 mM alanyl glutamine, 100 IU/ml penicillin, and 100 μg/ml streptomycin.
(§1) Mouse neural stem cells were cultured in accordance with the procedure of Example 1. […] The cells were cultured for 4 days.
(§2) Neurospheres were treated with TrypLE and separated into single cells, which were uniformly seeded into a culture dish coated with 15 μg/ml poly-L-ornithine and 10 μg/ml fibronectin. Following culture, the morphology of the cells was observed.
To this end, real-time (RT) PCR analysis was performed on neuron-specific markers. On day 4 after in vitro differentiation, mRNA expression was identified. The numbers in the graph indicate average values of mRNA expression levels relative to the respective controls from real-time PCR analyses in triplicate.
(§3) In this example, it was confirmed whether dopaminergic neurons were differentiated from neural stem cells.

mouse neural stem cells [2] = assay: Cell cycle analysis by PI staining and flow cytometry; type: cell-based; conditions: 10 μM, 4 days; PI staining; FIG. 2C
Protocol: Specifically, the cell cycles were analyzed by the following procedure. First, the cells (Example 1, Example 2, and Comparative Example 1) were washed twice with cold PBS and fixed in cold 70% ethanol for 30 min. The ethanol was removed by centrifugation, the cells were suspended, and the number of the cells was adjusted to 10^6/ml. The cells were washed twice with PBS, treated with 50 μg/ml propidium iodide (PI) at room temperature in the presence of RNase, and cultured for 30 min. Finally, the number of the cells was counted using a FACS Calibur flow cytometer (BD Biosciences, USA). Apoptosis was analyzed as follows. The cells were washed twice with cold PBS, treated with propidium iodide (PI) and Annexin V FITC at room temperature, and cultured for 15 min. PI and FITC fluorescence intensities were measured using a FACS flow cytometer. Data were analyzed with the Cell-quest FACS analysis software (BD Biosciences). The results are shown in FIGS. 2A, 2B, 2C, 3A, 3B and 3C. FIGS. 2A, 2B, 2C, 3A, 3B and 3C show the results of flow cytometry for the neural progenitor cells (undifferentiated; UD) cultured in Example 1, the differentiated cells (D) cultured in Comparative Example 1, and the AS703026-treated cells (UD+AS) cultured in Example 2 to identify the cycles of the cells. […]

mouse neural stem cells [3] = assay: Morphological analysis of treated neural stem cells; type: cell-based; conditions: AS703026, AZD8330 10 μM; PD318088, Trametinib, Refametinib 1 μM; 4 days; FIG. 8A
Protocol: as §1, §2, §3

mouse neural stem cells [4] = assay: Apoptosis analysis by annexin-V/PI flow cytometry; type: cell-based; conditions: 10 μM, 4 days
Protocol: Finally, the number of the cells was counted using a FACS Calibur flow cytometer (BD Biosciences, USA). Apoptosis was analyzed as follows. The cells were washed twice with cold PBS, treated with propidium iodide (PI) and Annexin V FITC at room temperature, and cultured for 15 min. PI and FITC fluorescence intensities were measured using a FACS flow cytometer. Data were analyzed with the Cell-quest FACS analysis software (BD Biosciences). The results are shown in FIGS. 2A, 2B, 2C, 3A, 3B and 3C. FIGS. 2A, 2B, 2C, 3A, 3B and 3C show the results of flow cytometry for the neural progenitor cells (undifferentiated; UD) cultured in Example 1, the differentiated cells (D) cultured in Comparative Example 1, and the AS703026-treated cells (UD+AS) cultured in Example 2 to identify the cycles of the cells. Specifically, FIGS. 2A, 2B and 2C are histograms showing the results of flow cytometry for the cells stained with PI. FIGS. 3A, 3B and 3C are scatter plot diagrams showing the results of flow cytometry for the cells stains with annexin-V/PI.

mouse neural stem cells [5] = assay: Immunoblot analysis of marker expression in cultured neural stem cells; type: cell-based
Protocol: Mouse neural stem cells were cultured in accordance with the procedure of Example 1. […] The cells were cultured for 4 days. Neurospheres were treated with TrypLE and separated into single cells, which were uniformly seeded into a culture dish coated with 15 μg/ml poly-L-ornithine and 10 μg/ml fibronectin. Following culture, the morphology of the cells was observed. In this example, it was confirmed whether dopaminergic neurons were differentiated from neural stem cells. To this end, immunoblot analysis and immunocytochemical analysis were performed on the neural progenitor cells (undifferentiated; UD) cultured in Example 1, the differentiated cells (D) cultured in Comparative Example 1, and the AS703026-treated cells (UD+AS) cultured in Example 2, and the results were compared. The immunoblot analysis was performed by the following procedure. First, the cells were washed with ice-cold phosphate-buffered saline (PBS) and lysed with 1×RIPA buffer (10 mM HEPES, 1.5 mM MgCl2, 10 mM KCl, 0.01 M DTT, protease inhibitors, pH 7.9). The cell homogenate was heated at 100° C. for 10 min and subjected to 10-12% SDS-polyacrylamide gel electrophoresis. Proteins were electrophoretically transferred to a nitrocellulose membrane and blocked with 5% non-fat dry milk in TBS-Tween 20 (0.1%, v/v) for 1 h. Western blotting was performed using anti-Tuj1, anti-GFAP or anti-MBP antibodies and successively horseradish peroxidase-conjugated anti-rabbit or anti-mouse IgG secondary antibodies. The protein bands were visualized using enhanced chemiluminescence (ECL, lab made) and detected with LAS-3000 (FUJIFILM, Tokyo, Japan). FIGS. 4 and 5 show the results of immunoblot analysis (FIG. 4) and immunocytochemical analysis (FIG. 5) for the neural progenitor cells (undifferentiated; UD) cultured in Example 1, the differentiated cells (D) cultured in Comparative Example 1, and the AS703026-treated cells (UD+AS) cultured in Example 2 to determine whether dopaminergic neurons were differentiated from the neural stem cells. […] The AS703026-treated cells were cultured in the same manner as in Example 2. […]

[6] = test system: ventral midbrains of embryos of pregnant mouse models; assay: Intraperitoneal administration to pregnant mice; marker expression in embryonic ventral midbrains (immunocytochemistry, RT-PCR); type: in vivo
Protocol: After the same amount of distilled water (D.W) as control was administered intraperitoneally to pregnant mouse models at 10.5 days of gestation daily for 4 consecutive days, the expression levels of the markers in the ventral midbrains, where dopaminergic neurons were most abundantly distributed, were analyzed. The control is marked as “Vehicle” in FIGS. 6 and 7.
Proteins and mRNAs isolated from the brains of the sacrificed embryos were analyzed by RT-PCR.

mouse neural stem cells [7] = assay: Immunocytochemical analysis of marker expression in cultured neural stem cells; type: cell-based; conditions: 10 μM, 4 days
Protocol: Mouse neural stem cells were cultured in accordance with the procedure of Example 1. […] The cells were cultured for 4 days. Neurospheres were treated with TrypLE and separated into single cells, which were uniformly seeded into a culture dish coated with 15 μg/ml poly-L-ornithine and 10 μg/ml fibronectin. Following culture, the morphology of the cells was observed. […] In this example, it was confirmed whether dopaminergic neurons were differentiated from neural stem cells. To this end, immunoblot analysis and immunocytochemical analysis were performed on the neural progenitor cells (undifferentiated; UD) cultured in Example 1, the differentiated cells (D) cultured in Comparative Example 1, and the AS703026-treated cells (UD+AS) cultured in Example 2, and the results were compared. The immunocytochemical analysis was performed by the following procedure. First, the cells were fixed in 4% para-formaldehyde at room temperature for 10 min, washed with PBS, and incubated with 0.2% Triton X-100 at room temperature for 15 min. After blocking with 10% BSA at room temperature for 1 h, the cells were incubated with anti-Tuj1 (Covance, Princeton, N.J.), anti-GFAP (Biogenex, San Ramon, Calif.), anti-MBP (Abcam), anti-Ki67 (Abcam), anti-p-ERK1/2 or anti-TH antibodies at 4° C. overnight, and cultured using Alexa Fluor 488- or Alexa Fluor 555-conjugated IgG secondary antibodies (Molecular Probes, Eugene, Oreg.) at room temperature for 1 h. Subsequently, the cells were cultured with 1 μg/ml 4′,6-diamidino-2-phenylindole (DAPI) for 5 min, the inlet was sealed with a coverslip, and the cells were observed using a confocal microscope. FIGS. 4 and 5 show the results of immunoblot analysis (FIG. 4) and immunocytochemical analysis (FIG. 5) for the neural progenitor cells (undifferentiated; UD) cultured in Example 1, the differentiated cells (D) cultured in Comparative Example 1, and the AS703026-treated cells (UD+AS) cultured in Example 2 to determine whether dopaminergic neurons were differentiated from the neural stem cells.

neural stem cells = assay: Differentiation of neural stem cells into dopaminergic neurons (general statements, no separate method); type: cell-based, mouse; conditions: MEK 1 inhibitor, no MEK 2 inhibition
[8] = i.p. to pregnant mice from 10.5 days of gestation, daily for 4 days, vs distilled water

O=C(NC[C@H](O)CO)c1ccncc1Nc1ccc(I)cc1F [AS703026, N-[(2S)-2,3-dihydroxypropyl]-3-[(2-fluoro-4-iodophenyl)amino]isonicotinamide hydrochloride]
expression level of GFAP (astrocyte differentiation factor) (mouse neural stem cells [1]; 10 μM, compared with Tuj1): lower than that of Tuj1
expression level of MBP (oligodendrocyte differentiation factor) (mouse neural stem cells [1]; 10 μM, compared with Tuj1): lower than that of Tuj1
expression level of Tuj1 (neuronal differentiation factor), times higher than UD and D cells (mouse neural stem cells [1]; 10 μM, vs undifferentiated (UD) and differentiated (D) cells, FIG. 1A): at least 10 times
Tuj1 (marker of neurons) expression (mouse neural stem cells [1]): expressed only
tyrosine hydroxylase (TH) expression (mouse neural stem cells [1]): expressed only
cell cycle (mouse neural stem cells [2]): arrested in the G0/G1 phase
morphology of treated cells (mouse neural stem cells [3]): neuron-like morphological changes
apoptosis (mouse neural stem cells [4]): does not induce apoptosis
expression pattern of TH compared with cells of Example 2 (10 μM) (mouse neural stem cells [5]; 1 μM (UD+AS, 1)): similar
expression pattern of TH compared with cells of Example 2 (10 μM) (mouse neural stem cells [5]; 5 μM (UD+AS, 5)): similar
tyrosine hydroxylase (TH) expression, immunoblot (mouse neural stem cells [5]; 10 μM, 4 days, vs UD and D cells, FIG. 4): expressed only
number of dopaminergic neurons formed in embryo brains vs non-administered animals ([6]; i.p. to pregnant mice at 10.5 days of gestation): approximately twice as large
expression level of TH in embryo brains vs control [6, 8]: significantly higher
expression level of Tuj1 in embryo brains vs control [6, 8]: significantly higher
immune response to GFAP in embryo brains ([6]; i.p. to pregnant mice, 4 days): No immune responses
immune response to MBP in embryo brains ([6]; i.p. to pregnant mice, 4 days): No immune responses
differentiation into dopaminergic neurons in embryos (RT-PCR) ([6]; i.p. to pregnant mice, 4 days, FIG. 7): increased differentiation
immune response to GFAP (mouse neural stem cells [7]): No immune responses
immune response to MBP (mouse neural stem cells [7]): No immune responses
number of clusters of dopaminergic neurons from which neurites extended outward (mouse neural stem cells [7]; FIG. 1B): increase
number of dopaminergic neurons differentiated (Tuj1 immunocytochemistry) (mouse neural stem cells [7]; FIG. 1B): considerable increase
tyrosine hydroxylase (TH) expression, immunocytochemistry (mouse neural stem cells [7]; vs UD and D cells, FIG. 5): expressed only

Cc1cc(C(=O)NOCCO)c(Nc2ccc(I)cc2F)n(C)c1=O [AZD8330]
Tuj1 (marker of neurons) expression (mouse neural stem cells [1]): expressed only
tyrosine hydroxylase (TH) expression (mouse neural stem cells [1]): expressed only
morphology of treated cells (mouse neural stem cells [3]): neuron-like morphological changes

COc1cccc(-c2cc(=O)c3ccccc3o2)c1N [PD98059]
induction of differentiation of neural stem cells into dopaminergic neurons (neural stem cells): does not induce substantial differentiation

O=C(NOCC(O)CO)c1cc(Br)c(F)c(F)c1Nc1ccc(I)cc1F (centres unmarked) [PD318088]
Tuj1 (marker of neurons) expression (mouse neural stem cells [1]): expressed only
tyrosine hydroxylase (TH) expression (mouse neural stem cells [1]): expressed only
morphology of treated cells (mouse neural stem cells [3]): neuron-like morphological changes

COc1cc(F)c(F)c(Nc2ccc(I)cc2F)c1NS(=O)(=O)C1(C[C@H](O)CO)CC1 [Refametinib]
Tuj1 (marker of neurons) expression (mouse neural stem cells [1]): expressed only
tyrosine hydroxylase (TH) expression (mouse neural stem cells [1]): expressed only
morphology of treated cells (mouse neural stem cells [3]): neuron-like morphological changes

From US10179132B2, “Composition for inducing differentiation of multipotent neural stem cells into dopaminergic neurons and method for inducing differentiation of multipotent neural stem cells into dopaminergic neurons by using the same” (INDUSTRY-ACADEMIC COOPERATION FOUNDATION, YONSEI UNIVERSITY, priority 2015, dated 2019)
